Where “and” joins values, the source holds several entries; their conditions need not be identical. Equal values may be shown once.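 A five-concentration, 48-hour dose response in 96-well plates underlies each endpoint, interpolated linearly between surrounding concentrations. The concentration for 50% growth inhibition is given as GI50. TGI: total growth inhibition.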
Tests used:
Assay in all cases: NCI anticancer screen, dose series, 48 h
HCT-15 colon = test system: HCT-15 colon
MOLT-4 leukemia = test system: MOLT-4 leukemia
CCRF-CEM leukemia = test system: CCRF-CEM leukemia
UACC-62 melanoma = test system: UACC-62 melanoma
PC-3 prostate = test system: PC-3 prostate
M14 melanoma = test system: M14 melanoma
CAKI-1 renal = test system: CAKI-1 renal
SK-MEL-28 melanoma = test system: SK-MEL-28 melanoma
DU-145 prostate = test system: DU-145 prostate
HCT-116 colon = test system: HCT-116 colon
MCF7 breast = test system: MCF7 breast
OVCAR-5 ovarian = test system: OVCAR-5 ovarian
SW-620 colon = test system: SW-620 colon
NCI-H226 lung = test system: NCI-H226 lung
HOP-92 NSCLC = test system: HOP-92 NSCLC
MDA-MB-435 = test system: MDA-MB-435
A498 renal = test system: A498 renal
K-562 leukemia = test system: K-562 leukemia
SK-OV-3 ovarian = test system: SK-OV-3 ovarian
COLO 205 colon = test system: COLO 205 colon
BT-549 breast = test system: BT-549 breast
NCI-H23 lung = test system: NCI-H23 lung
SF-295 CNS = test system: SF-295 CNS
HS 578T breast = test system: HS 578T breast
UACC-257 melanoma = test system: UACC-257 melanoma
IGROV1 ovarian = test system: IGROV1 ovarian
SR leukemia = test system: SR leukemia
SK-MEL-5 melanoma = test system: SK-MEL-5 melanoma
SNB-75 CNS = test system: SNB-75 CNS
OVCAR-8 ovarian = test system: OVCAR-8 ovarian
OVCAR-4 ovarian = test system: OVCAR-4 ovarian
NCI/ADR-RES ovarian = test system: NCI/ADR-RES ovarian
KM12 colon = test system: KM12 colon
MALME-3M melanoma = test system: MALME-3M melanoma
LOX IMVI melanoma = test system: LOX IMVI melanoma
NCI-H460 lung = test system: NCI-H460 lung
TK-10 renal = test system: TK-10 renal
MDA-N = test system: MDA-N
MDA-MB-231 breast = test system: MDA-MB-231 breast
T-47D breast = test system: T-47D breast
SN12C renal = test system: SN12C renal
UO-31 renal = test system: UO-31 renal
SF-268 CNS = test system: SF-268 CNS
HOP-62 NSCLC = test system: HOP-62 NSCLC
SK-MEL-2 melanoma = test system: SK-MEL-2 melanoma
RXF 393 renal = test system: RXF 393 renal
U251 CNS = test system: U251 CNS
HL-60(TB) leukemia = test system: HL-60(TB) leukemia
ACHN renal = test system: ACHN renal
A549 NSCLC = test system: A549 NSCLC
786-0 renal = test system: 786-0 renal
RPMI-8226 leukemia = test system: RPMI-8226 leukemia
EKVX NSCLC = test system: EKVX NSCLC
HT29 colon = test system: HT29 colon
OVCAR-3 ovarian = test system: OVCAR-3 ovarian
SF-539 CNS = test system: SF-539 CNS
NCI-H522 lung = test system: NCI-H522 lung
HCC-2998 colon = test system: HCC-2998 colon
SNB-19 CNS = test system: SNB-19 CNS

Nc1ncc(CN2CCOCC2)c(-c2ccccc2O)n1
TGI (HCT-15 colon): > 100 µM | TGI (MOLT-4 leukemia): > 100 µM | TGI (CCRF-CEM leukemia): > 100 µM | TGI (UACC-62 melanoma): > 100 µM | TGI (PC-3 prostate): > 100 µM | TGI (M14 melanoma): > 100 µM | TGI (CAKI-1 renal): > 100 µM | TGI (SK-MEL-28 melanoma): > 100 µM | TGI (DU-145 prostate): > 100 µM | TGI (HCT-116 colon): > 100 µM | TGI (MCF7 breast): > 100 µM | TGI (OVCAR-5 ovarian): > 100 µM | TGI (SW-620 colon): > 100 µM | TGI (NCI-H226 lung): > 100 µM | TGI (HOP-92 NSCLC): > 100 µM | TGI (MDA-MB-435): > 100 µM | TGI (A498 renal): > 100 µM | TGI (K-562 leukemia): > 100 µM | TGI (SK-OV-3 ovarian): > 100 µM | TGI (COLO 205 colon): > 100 µM | TGI (BT-549 breast): > 100 µM | TGI (NCI-H23 lung): > 100 µM | TGI (SF-295 CNS): > 100 µM | TGI (HS 578T breast): > 100 µM | TGI (UACC-257 melanoma): > 100 µM | TGI (IGROV1 ovarian): > 100 µM | TGI (SR leukemia): > 100 µM | TGI (SK-MEL-5 melanoma): > 100 µM | TGI (SNB-75 CNS): > 100 µM | TGI (OVCAR-8 ovarian): > 100 µM | TGI (OVCAR-4 ovarian): > 100 µM | TGI (NCI/ADR-RES ovarian): > 100 µM | TGI (KM12 colon): > 100 µM | TGI (MALME-3M melanoma): > 100 µM | TGI (LOX IMVI melanoma): > 100 µM | TGI (NCI-H460 lung): > 100 µM | TGI (TK-10 renal): > 100 µM | TGI (MDA-N): > 100 µM | TGI (MDA-MB-231 breast): > 100 µM | TGI (T-47D breast): > 100 µM | TGI (SN12C renal): > 100 µM | TGI (UO-31 renal): > 100 µM | TGI (SF-268 CNS): > 100 µM | TGI (HOP-62 NSCLC): > 100 µM | TGI (SK-MEL-2 melanoma): > 100 µM | TGI (RXF 393 renal): > 100 µM | TGI (U251 CNS): > 100 µM | TGI (HL-60(TB) leukemia): > 100 µM | TGI (ACHN renal): > 100 µM | TGI (A549 NSCLC): > 100 µM | TGI (786-0 renal): > 100 µM | TGI (RPMI-8226 leukemia): > 100 µM | TGI (EKVX NSCLC): > 100 µM | TGI (HT29 colon): > 100 µM | TGI (OVCAR-3 ovarian): > 100 µM | TGI (SF-539 CNS): > 100 µM

Cc1c(F)c(N)c2c(=O)cc(-c3ccc(NC(=O)[C@@H](N)CCCCN)c(F)c3)oc2c1F
TGI (HCT-15 colon): 30.4 µM and 30.3 µM | GI50 (MOLT-4 leukemia): 3.3 µM and 1.38 µM | TGI (MOLT-4 leukemia): 15.1 µM and 5.79 µM | TGI (CCRF-CEM leukemia): 22.9 µM | TGI (PC-3 prostate): 32 µM and 29.3 µM | TGI (M14 melanoma): 46 µM and 39.4 µM | TGI (CAKI-1 renal): 9.01 µM and 29.7 µM | TGI (SK-MEL-28 melanoma): 35.1 µM and 29 µM | TGI (DU-145 prostate): 41.3 µM and 27.4 µM | TGI (HCT-116 colon): 21.5 µM and 22.1 µM | GI50 (NCI-H522 lung): 19.7 µM and 4.68 µM | TGI (NCI-H522 lung): 45.5 µM and 35.3 µM | TGI (MCF7 breast): 1.81 µM and 1.38 µM | GI50 (OVCAR-5 ovarian): 0.947 µM and 0.249 µM | TGI (OVCAR-5 ovarian): 25.2 µM and 21.9 µM | GI50 (SW-620 colon): 7.81 µM and 1.71 µM | TGI (SW-620 colon): 39 µM and 17.3 µM | GI50 (NCI-H226 lung): 0.0446 µM | TGI (NCI-H226 lung): 15 µM | TGI (HOP-92 NSCLC): 68.5 µM and 39.8 µM | TGI (MDA-MB-435): 26.6 µM and 20.5 µM | TGI (A498 renal): 0.22 µM | GI50 (K-562 leukemia): 0.652 µM and 0.278 µM | TGI (K-562 leukemia): 36.4 µM and 10.4 µM | TGI (SK-OV-3 ovarian): 31.6 µM and 32.6 µM | GI50 (COLO 205 colon): 14.9 µM and 6.93 µM | TGI (COLO 205 colon): 31.5 µM and 24.4 µM | TGI (BT-549 breast): 50.3 µM and 49.6 µM | GI50 (NCI-H23 lung): 5.61 µM and 15.4 µM | TGI (NCI-H23 lung): 23.3 µM and 37.5 µM | TGI (SF-295 CNS): 28.5 µM and 32.3 µM | GI50 (HS 578T breast): 23.5 µM and 11.5 µM | TGI (HS 578T breast): 53.4 µM and 45.8 µM | GI50 (UACC-257 melanoma): 0.302 µM | TGI (UACC-257 melanoma): 24.7 µM and 27.8 µM | TGI (IGROV1 ovarian): 19.5 µM and 18.1 µM | GI50 (SR leukemia): 5.84 µM and 2.53 µM | TGI (SR leukemia): 20.3 µM and 9.55 µM | GI50 (SK-MEL-5 melanoma): 13.2 µM and 2.63 µM | TGI (SK-MEL-5 melanoma): 27.4 µM and 27.2 µM | TGI (SNB-75 CNS): 13.6 µM | TGI (OVCAR-8 ovarian): 33 µM and 24.6 µM | TGI (OVCAR-4 ovarian): 32.7 µM and 26.7 µM | TGI (NCI/ADR-RES ovarian): 51.9 µM and 78.7 µM | TGI (KM12 colon): 24.8 µM and 22.4 µM | GI50 (MALME-3M melanoma): 23.6 µM and 10 µM | TGI (MALME-3M melanoma): 44.2 µM and 33.6 µM | TGI (LOX IMVI melanoma): 41.3 µM and 27.7 µM | GI50 (HCC-2998 colon): 0.253 µM and 0.769 µM | TGI (HCC-2998 colon): 18.7 µM and 19.7 µM | TGI (NCI-H460 lung): 16.2 µM and 16.6 µM | TGI (TK-10 renal): 21.4 µM and 26.4 µM | TGI (MDA-N): 28.7 µM and 24.6 µM | TGI (MDA-MB-231 breast): 33.1 µM and 30.8 µM | TGI (T-47D breast): 28.7 µM and > 57.3 µM | TGI (SN12C renal): 31.7 µM and 32.7 µM | TGI (UO-31 renal): 33.7 µM and 22.1 µM | TGI (SF-268 CNS): 34.7 µM and 39.6 µM | TGI (HOP-62 NSCLC): 27.3 µM and 24 µM | TGI (SK-MEL-2 melanoma): 34.6 µM and 47.1 µM | TGI (RXF 393 renal): 36.1 µM and 53.3 µM | GI50 (U251 CNS): 2.96 µM and 0.842 µM | TGI (U251 CNS): 21.9 µM and 15.1 µM | GI50 (HL-60(TB) leukemia): 11.2 µM and 2.41 µM | TGI (HL-60(TB) leukemia): 29.3 µM and 30.4 µM | TGI (ACHN renal): 31.1 µM and 25.6 µM | GI50 (A549 NSCLC): 3.03 µM and 0.59 µM | TGI (A549 NSCLC): 31 µM and 18.4 µM | TGI (786-0 renal): 24 µM and 26.4 µM | TGI (SNB-19 CNS): > 78.7 µM and 49.5 µM | GI50 (RPMI-8226 leukemia): 3.48 µM and 0.936 µM | TGI (RPMI-8226 leukemia): 32.6 µM and 22.3 µM | TGI (EKVX NSCLC): 28.4 µM and 22.6 µM | TGI (HT29 colon): 31 µM and 26.4 µM | GI50 (OVCAR-3 ovarian): 0.508 µM and 0.249 µM | TGI (OVCAR-3 ovarian): 20.7 µM and 14.8 µM | GI50 (SF-539 CNS): 17.1 µM and 5.78 µM | TGI (SF-539 CNS): 33.3 µM and 13.6 µM
